pIC50: −log10 of the molar value.
Tests used:
Assay type in all cases: functional
[1] = organism: Mus musculus; assay: Inhibitory effect on electrically induced contraction of Mouse vas deferens (MVD)
[2] = Relative potency calculated from the ratio of IC50 of [Leu]-enkephalin to that of the compound
[3] = organism: Cavia porcellus; assay: Inhibitory effect on electrically induced contraction of guinea pig ileum (GPI)
[4] = organism: Rattus norvegicus; assay: Inhibitory effect on the binding of 2 nM [3H]naloxone to rat brain membrane

`CC(C)C[C@H](NC(=O)[C@H](Cc1ccccc1)NC(=O)CNC(=O)[C@@H](C)NC(=O)[C@@H](N)Cc1ccc(O)cc1)C(N)=O` gave a pIC50 [1] of 8.54, a Potency [2] of 3.9 and a pIC50 [3] of 8.28. For the same compound, the pIC50 [4] was 7.52.

Work on `CC(C)C[C@H](NC(=O)[C@H](Cc1ccccc1)NC(=O)CNC(=O)CNC(=O)[C@@H](N)Cc1ccc(O)cc1)C(N)=O` [[LEU5]ENKEPHALIN] yielded a pIC50 [1] of 7.77, a Potency [2] of 1 and a pIC50 [3] of 6.92. It also gave a pIC50 [4] of 6.93.

For `C=CCN1CC[C@]23c4c5ccc(O)c4O[C@H]2C(=O)CC[C@@]3(O)[C@H]1C5` [NALOXONE], the Potency [2] was 18.5 and the pIC50 [4] was 8.19.

`CC(C)C[C@H](NC(=O)[C@H](Cc1ccccc1)NC(=O)CNC(=O)[C@H](C)NC(=O)[C@@H](N)Cc1ccc(O)cc1)C(=O)NCCNc1ccc(N=[N+]=[N-])cc1[N+](=O)[O-]` gave a pIC50 [1] of 8.59, a Potency [2] of 46.8 and a pIC50 [3] of 8.36. For the same compound, the pIC50 [4] was 8.60.

Source: ChEMBL document CHEMBL1122680, “A photoaffinity reagent to label the opiate receptors of guinea pig ileum and mouse vas deferens” (J Med Chem, 1984)
